Experimental data: US20050164233A1, “Compositions, kits and methods for identification and modulation of type I diabetes” (priority 2000, published 2005)

Key:
[1] = test system: Vα24JαQ T cell clone GW4 (nondiabetic, IL-4+); assay: Cytokine secretion (ELISA) from anti-CD3-activated Vα24JαQ T cell clone GW4, inhibitor studies; type: cell-based, human; details: IL-4+ clone; for IL-4 secretion after inhibition of PI3-kinase: anti-CD3 plus PI3-kinase inhibitor, 1 ng/ml PMA or 1 μg/ml ionomycin included; for secretion of IFN-γ / anti-CD3-induced IL-4 secretion: plate-bound anti-CD3 1 μg/ml, 4 h, ELISA, 10 nM wortmannin; for secretion of IFN-γ: 10 μM LY294002; for anti-CD3-induced IL-4 secretion: 10 μM LY294002, 50 μM PD98059, 50 μM SB203580
Experimental: (§1) Single, Vα24-positive, CD4/8 negative single-cell sorts were grown on irradiated allogeneic feeders at 50,000 cells per well with 5,000 cells per well irradiated (5,000 rads) 721.221 lymphoblastoid cells with 1 μg/ml PHA-P, IL-2 and IL-7 each at 10 units/ml (Boehringer Mannheim) and propagated as described (Wilson et al. (1998) Nature 391: 177-181). Clones positive for Vα24 and NKR-P1A by flow cytometry and a Vα24JαQ CDR3 T cell antigen receptor sequence were assayed for cytokine secretion in C1R/CD1s restriction experiments. For cytokine secretion and inhibitor studies, Vα24JαQ T cell clones GW4 (nondiabetic) and ME10 (diabetic) at 5×10^4 cells per well were activated with plate-bound anti-CD3 or Ig control at 1 μg/ml. Secreted IL-4 and IFN-γ were assayed by ELISA after 4 h of activation as described (Wilson et al. (1998) Nature 391: 177-181). Optimal concentrations of inhibitors previously were determined by inhibitor dose-response experiments. The concentrations of inhibitors used were 10 nM wortmannin; 10 μM LY294002, 50 μM PD98059, a mitogen-activated protein kinase kinase inhibitor, and 50 μM SB203580, a p38 kinase inhibitor. The concentrations of phorbol ester and calcium ionophore used were 1 ng/ml phorbol 12-myristate 13-acetate (PMA) and 1 μg/ml ionomycin. Cyclosporin A (CsA) was used at 5 ng/ml as a negative control, due to itS ability to prevent T cell activation. Calcium flux was determined by loading cells with indo-1 as per the manufacturer's specifications (Molecular Probes), followed by activation with anti-CD3 at 10 μg/ml. Maximal calcium flux was determined by the addition of ionomycin.

[2] = test system: Vα24JαQ T cell clone ME10 (diabetic, IL-4-null); assay: Cytokine secretion (ELISA) from anti-CD3-activated Vα24JαQ T cell clone ME10, inhibitor studies; type: cell-based, human; details: for defect in IL-4 secretion: diabetic-derived clone ME10, 1 ng/ml PMA, 1 μg/ml ionomycin, alone or in combination; for secretion of IFN-γ: IL-4-null clone, plate-bound anti-CD3 1 μg/ml, 4 h, ELISA, 10 nM wortmannin, 10 μM LY294002
Experimental: as §1

In the case of C[C@H](CCC(=O)O)C[C@H](C)C[C@H](C)C(=O)/C=C(\O)[C@H](C)C[C@H](C)C/C=C/[C@@H](C)[C@@H](O)[C@@H](C)[C@@H](O)C[C@@H]1CC[C@@](C)([C@H]2CC[C@@](C)([C@@H](C)O)O2)O1 [ionomycin], the “IL-4 secretion after inhibition of PI3-kinase” value [1] is reported as “rescued” and the “defect in IL-4 secretion” value [2] is reported as “Neither of these substances alone or in combination repaired the defect”.
In the case of O=c1cc(N2CCOCC2)oc2c(-c3ccccc3)cccc12 [LY294002], the “secretion of IFN-γ” value [1] is reported as “no effect” and the “secretion of IFN-γ” value [2] is reported as “no effect”.
For COc1cccc(-c2cc(=O)c3ccccc3o2)c1N [PD98059], the “anti-CD3-induced IL-4 secretion” value [1] was “no effect”.
In the case of C[S+]([O-])c1ccc(-c2nc(-c3ccncc3)c(-c3ccc(F)cc3)[nH]2)cc1 (stereo not shown) [SB203580], the “anti-CD3-induced IL-4 secretion” value [1] is reported as “no effect”.
With COC[C@H]1OC(=O)c2coc3c2[C@@]1(C)C1=C(C3=O)[C@@H]2CCC(=O)[C@@]2(C)C[C@H]1OC(C)=O [wortmannin] the “secretion of IFN-γ” value [1] was “no effect” and the “secretion of IFN-γ” value [2] was “no effect”.
With CCCCCCCCCCCCCC(=O)O[C@@H]1[C@@H](C)[C@@]2(O)[C@@H](C=C(CO)C[C@]3(O)C(=O)C(C)=C[C@@H]23)[C@@H]2C(C)(C)[C@]12OC(C)=O [PMA, phorbol 12-myristate 13-acetate] the “IL-4 secretion after inhibition of PI3-kinase” value [1] was “rescued” and the “defect in IL-4 secretion” value [2] was “Neither of these substances alone or in combination repaired the defect”.
